One compound from PMC3901242, “Determining Enzyme Kinetics for Systems Biology with Nuclear Magnetic Resonance Spectroscopy” (Metabolites, 2012) can be followed below.

This experiment has as its target T1, phosphofructokinase (PFK, EC 2.7.1.11) (Escherichia coli, UniProt P0A796).
T1 construct: gene pfkA; native enzyme in whole-cell extract of mid-log micro-aerobic cells (sonication or glass beads), not purified; PFK-1 tetrameric; minor PFK-2 (pfkB) may be present
T1 sequence (P0A796 1-320): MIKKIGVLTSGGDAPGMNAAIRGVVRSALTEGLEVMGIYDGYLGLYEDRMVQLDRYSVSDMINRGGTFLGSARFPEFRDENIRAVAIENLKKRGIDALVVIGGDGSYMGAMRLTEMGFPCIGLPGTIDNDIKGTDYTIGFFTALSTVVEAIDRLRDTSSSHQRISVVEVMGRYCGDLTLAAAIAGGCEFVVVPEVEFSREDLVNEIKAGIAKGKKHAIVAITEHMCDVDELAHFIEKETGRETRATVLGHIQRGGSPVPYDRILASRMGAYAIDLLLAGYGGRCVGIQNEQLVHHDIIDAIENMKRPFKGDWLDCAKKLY
The experiment in a line: […]-NMR progress curves, global fit to irreversible bi-substrate Hill equation with negative allosteric modifier. In kind it is biochemical. The note with it: allosteric inhibitor; co-substrates F6P and ATP; PEP 4 and 8 mM initial; 1 mM Mg2+; 100 mM PIPES pH 7.2, 25 °C; cell extract.

Regarding `C=C(OP(=O)(O)O)C(=O)O` [PEP], the “Fitted parameters ^b” value is given as 0.0863 ± 0.0001 mM.
